The source made the active and inactive calls. The rule behind the calls is not given here.

Among the data in ChEMBL document CHEMBL5357053, “Neopetrotaurines A-C, Isoquinoline Alkaloids with an Unprecedented Taurine Bridge from the Sponge Neopetrosia sp” (J Nat Prod, 2024) are Activity and IC50 values, retold here.

Common to all, as to format: functional, cell-based
The subject of assay [1] is SCMC. The assay is described as follows: Downregulation of FOXO1 target gene set in human SCMC cells measured after 6 hrs by GSEA method.
A short description of assay [2]: Antiproliferative activity against human Rh4 cells assessed as inhibition of cell viability measured after 72 hrs by IncuCyte live-cell imaging assay. The settings on record: Rh4, 72 h.
The test system of assay [3] is Rh4. The assay is described as follows: Downregulation of FOXO1 target gene set in human Rh4 cells measured after 6 hrs by GSEA method. The settings on record: dose 1.9 µM.
The nature of assay [4]: Antiproliferative activity against human SCMC cells assessed as inhibition of cell viability measured after 72 hrs by IncuCyte live-cell imaging assay.

Regarding `COC(=O)c1cc2c(OS(=O)(=O)CCNc3c4c(cn(C)c3=O)C(=O)C(OC)=C(C)C4=O)c(C)c(OC)c(O)c2c[n+]1C`, the outcome in assay [1] and in assay [3] was Active. The 50% inhibitory concentration (IC50) in assay [2] is 3.3 µM; in assay [4], 11 µM.
Regarding `COC1=C(C)C(=O)c2c(cn(C)c(=O)c2NCCS(=O)(=O)Oc2c(C)c(OC)c(O)c3c[n+](C)c(C(=O)O)cc23)C1=O`, the result in assay [1] and in assay [3] was inactive. The IC50 in assay [2] stood at 2.3 µM; in assay [4], 7.4 µM.
For the molecule `COC1=C(C)C(=O)c2c(cn(C)c(=O)c2NCCS(=O)(=O)Oc2c(C)c(OC)c(O)c3c[n+](C)ccc23)C1=O`, the result in assay [1] and in assay [3] was inactive. For the same molecule, the IC50 in assay [2] was 1.9 µM; in assay [4], 7.3 µM.
